Patent publication US9567339B2, “Primary carboxamides as BTK inhibitors” (AbbVie Inc., priority 2013, dated 2017)

target: BTK, recombinant human catalytic domain (aa 393-659) (Homo sapiens (Human), UniProt Q06187); test: In vitro BTK kinase activity measured by time-resolved fluorescence resonance energy transfer (trFRET); format: biochemical; details: not given
Sequence (Q06187 393-659): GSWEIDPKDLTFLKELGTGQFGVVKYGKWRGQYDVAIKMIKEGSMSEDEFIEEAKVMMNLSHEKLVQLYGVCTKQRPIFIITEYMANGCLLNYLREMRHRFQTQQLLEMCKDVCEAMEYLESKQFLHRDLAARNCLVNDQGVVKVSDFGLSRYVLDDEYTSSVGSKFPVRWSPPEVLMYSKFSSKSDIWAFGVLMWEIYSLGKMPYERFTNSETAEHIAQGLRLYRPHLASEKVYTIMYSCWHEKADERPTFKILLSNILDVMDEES

Compound	IC50
Cc1c(NC(=O)c2nccs2)cccc1-c1ccc(C(N)=O)c2[nH]cc(NC(=O)CCl)c12 [E.5.1]	1000 to 10000 nM

same assay, conditions: read-out: Btk IC50

IC50	Compound
100 to 1000 nM	C=CC(=O)N(CC(C)C)c1cccc(-c2ccc(C(N)=O)c3[nH]ccc23)c1 [E.1.35, 4-(3-(N-isobutylacrylamido)phenyl)-1H-indole-7-carboxamide]
100 to 1000 nM	Cc1c(NC(=O)c2nccs2)cccc1-c1ccc(C(N)=O)c2[nH]c(-c3ccccc3CNC(=O)CCl)cc12 [E.4.1]
1000 to 10000 nM	CCC(=O)NCc1ccccc1-c1cc2c(-c3cccc(NC(=O)c4nccs4)c3C)ccc(C(N)=O)c2[nH]1 [E.4.2]
100 to 1000 nM	CC(=O)NCc1ccccc1-c1cc2c(-c3cccc(NC(=O)c4nccs4)c3C)ccc(C(N)=O)c2[nH]1 [E.4.3]
< 100 nM	CCOC(=O)N1CC=C(c2cc3c(-c4cccc(-n5cnc6ccccc6c5=O)c4C)ccc(C(N)=O)c3[nH]2)C1 [E.6.1]
< 100 nM	CCOC(=O)N1CC=C(c2cc3c(-c4cccc(-n5cnc6ccccc6c5=O)c4C)ccc(C(N)=O)c3[nH]2)CC1 [E.6.2]
100 to 1000 nM	CC(=O)C(=O)Nc1cccc(-c2ccc(C(N)=O)c3[nH]ccc23)c1 [E.7.1]
100 to 1000 nM	CC(=O)C(=O)NCc1cccc(-c2ccc(C(N)=O)c3[nH]ccc23)c1 [E.7.2]
< 100 nM	CC(=O)N1CC=C(c2cc3c(-c4cccc(-n5cnc6ccccc6c5=O)c4C)ccc(C(N)=O)c3[nH]2)C1 [E.8.1]
< 100 nM	CC(=O)N1CC=C(c2cc3c(-c4cccc(-n5cnc6ccccc6c5=O)c4C)ccc(C(N)=O)c3[nH]2)CC1 [E.8.2]
100 to 1000 nM	C=CC(=O)N1CC(N(C)c2ccc(C(N)=O)c3[nH]c(C4(O)COC4)cc23)C1 [E.9.1.1]
< 100 nM	C=CC(=O)N1CC(N(C)c2ccc(C(N)=O)c3[nH]c(C4CC4)cc23)C1 [E.9.2]
< 100 nM	C=CC(=O)N1CC(N(C)c2ccc(C(N)=O)c3[nH]c(-c4ccc5c(c4)COCC5)cc23)C1 [E.9.3]
< 100 nM	C=CC(=O)N1CC(N(C)c2ccc(C(N)=O)c3[nH]c(-c4cc5n(n4)CCOC5)cc23)C1 [E.9.4]
< 100 nM	C=CC(=O)N1CC(N(C)c2ccc(C(N)=O)c3[nH]c(C4=CCC(F)(F)CC4)cc23)C1 [E.9.5]
< 100 nM	C=CC(=O)N1CC(N(C)c2ccc(C(N)=O)c3[nH]c(C4=CCC(S(C)(=O)=O)CC4)cc23)C1 (centres unmarked) [E.9.6]
< 100 nM	C=CC(=O)N1CCC[C@@H](c2ccc(C(N)=O)c3[nH]c(C)cc23)C1 [E.9.7]
< 100 nM	C=CC(=O)N1CCC[C@H](c2ccc(C(N)=O)c3[nH]c(C)cc23)C1 [E.9.8]
< 100 nM	C=CC(=O)N1CC(N(C)c2ccc(C(N)=O)c3[nH]c(-c4ccc(N5CCOCC5)nc4)cc23)C1 [E.9.10]
< 100 nM	C=CC(=O)N1CC(N(C)c2ccc(C(N)=O)c3[nH]c(-c4cnc5c(c4)COCC5)cc23)C1 [E.9.11]
< 100 nM	C=CC(=O)N1CC(N(C)c2ccc(C(N)=O)c3[nH]c(-c4ccc5c(c4)OCCC5)cc23)C1 [E.9.12]
< 100 nM	C=CC(=O)N1CC(N(C)c2ccc(C(N)=O)c3[nH]c(-c4ccc(CN5CCOCC5)cn4)cc23)C1 [E.9.13]
< 100 nM	C=CC(=O)N1CC(N(C)c2ccc(C(N)=O)c3[nH]c(-c4cnn(C)c4)cc23)C1 [E.9.14]

IC50	Compound
< 100 nM	C=CC(=O)N1CC(N(C)c2ccc(C(N)=O)c3[nH]c(-c4ccc5c(c4)NCCO5)cc23)C1 [E.9.15]
< 100 nM	C=CC(=O)N1CC(N(C)c2ccc(C(N)=O)c3[nH]c(-c4ccnn4C)cc23)C1 [E.9.16]
< 100 nM	C=CC(=O)N1CC(N(C)c2ccc(C(N)=O)c3[nH]c(-c4ccc5c(c4)CCN(CC)C5)cc23)C1 [E.9.17]
< 100 nM	C=CC(=O)N1CC(N(C)c2ccc(C(N)=O)c3[nH]c(-c4cn(C)nc4C)cc23)C1 [E.9.18]
< 100 nM	C=CC(=O)N1CC(N(C)c2ccc(C(N)=O)c3[nH]c(C4CCS(=O)(=O)CC4)cc23)C1 [E.9.19]
< 100 nM	C=CC(=O)N1CC(N(C)c2ccc(C(N)=O)c3[nH]c(C4CCN(CCC)CC4)cc23)C1 [E.9.20]
< 100 nM	C=CC(=O)N1CC(N(C)c2ccc(C(N)=O)c3[nH]c(C4CCOC4)cc23)C1 (centres unmarked) [E.9.21]
100 to 1000 nM	C=CC(=O)N1CC(N(C)c2ccc(C(N)=O)c3[nH]c(C4(O)COC4)cc23)C1 [E.9.22]
< 100 nM	C=CC(=O)N1CCO[C@H](c2ccc(C(N)=O)c3[nH]c(-c4cnn(C)c4)cc23)C1 [E.9.23]
< 100 nM	C=CC(=O)N1CCO[C@@H](c2ccc(C(N)=O)c3[nH]c(-c4cnn(C)c4)cc23)C1 [E.9.24]
< 100 nM	C=CC(=O)N1CC(N(C)c2ccc(C(N)=O)c3[nH]c(C)cc23)C1 [E.9.25]
< 100 nM	C=CC(=O)N1CC[C@H](c2ccc(C(N)=O)c3[nH]c(-c4cc5n(n4)CCOC5)cc23)C1 [E.9.26]
< 100 nM	C=CC(=O)N1CC[C@@H](c2ccc(C(N)=O)c3[nH]c(-c4cc5n(n4)CCOC5)cc23)C1 [E.9.27]
< 100 nM	C=CC(=O)N1CC([C@@H](C)c2ncc(C(N)=O)c3[nH]ccc23)C1 [E.9.28]
100 to 1000 nM	C=CC(=O)N1CC([C@H](C)c2ncc(C(N)=O)c3[nH]ccc23)C1 [E.9.29]
< 100 nM	C=CC(=O)N1CCOC[C@@H](c2ncc(C(N)=O)c3[nH]ccc23)C1 [E.9.30]
1000 to 10000 nM	C=CC(=O)N1CCOC[C@H](c2ncc(C(N)=O)c3[nH]ccc23)C1 [E.9.31]
< 100 nM	C=CC(=O)N1CCC[C@@H](c2ncc(C(N)=O)c3[nH]ccc23)C1 [E.9.32]
100 to 1000 nM	C=CC(=O)N1CCC[C@H](c2ncc(C(N)=O)c3[nH]ccc23)C1 [E.9.33]
< 100 nM	C=CC(=O)N1CC(Nc2cnc(C(N)=O)c3[nH]ccc23)C1 [E.9.34]
< 100 nM	C=CC(=O)N1CC(C)(N(C)c2ccc(C(N)=O)c3[nH]ccc23)C1 [E.9.35]
< 100 nM	C=CC(=O)N1CCC[C@H](c2cnc(C(N)=O)c3sc(-c4cnn(C)c4)nc23)C1 [E.9.36]
< 100 nM	C=CC(=O)N1CCC[C@@H](c2cnc(C(N)=O)c3sc(-c4cnn(C)c4)nc23)C1 [E.9.37]

IC50	Compound
< 100 nM	C=CC(=O)N1CCOC[C@@H](c2ccc(C(N)=O)c3[nH]ccc23)C1 [E.9.38]
1000 to 10000 nM	C=CC(=O)N1CCOC[C@H](c2ccc(C(N)=O)c3[nH]ccc23)C1 [E.9.39]
100 to 1000 nM	C=CC(=O)N1CC[C@@H](c2ccc(C(N)=O)c3[nH]c(C)cc23)C1 [E.9.40*]
100 to 1000 nM	C=CC(=O)N1CC[C@H](c2ccc(C(N)=O)c3[nH]c(C)cc23)C1 [E.9.41*]
100 to 1000 nM	C=CC(=O)N1C[C@H]2CN(c3ccc(C(N)=O)c4[nH]ccc34)C[C@H]21 [E.9.42]
100 to 1000 nM	C=CC(=O)N1C[C@@H]2CN(c3ccc(C(N)=O)c4[nH]ccc34)C[C@@H]21 [E.9.43]
100 to 1000 nM	C=CC(=O)N1C[C@H](CO)C[C@@H](c2ccc(C(N)=O)c3[nH]ccc23)C1 [E.9.44]
1000 to 10000 nM	C=CC(=O)N1C[C@@H](CO)C[C@@H](c2ccc(C(N)=O)c3[nH]ccc23)C1 [E.9.45]
1000 to 10000 nM	C=CC(=O)N1C[C@@H](CO)C[C@H](c2ccc(C(N)=O)c3[nH]ccc23)C1 [E.9.46]
100 to 1000 nM	C=CC(=O)N1C[C@H](CO)C[C@H](c2ccc(C(N)=O)c3[nH]ccc23)C1 [E.9.47]
< 100 nM	C=CC(=O)N1CC[C@H](c2ccc(C(N)=O)c3[nH]c(-c4cnn(C)c4)cc23)C1 [E.9.48]
100 to 1000 nM	C=CC(=O)N1CC[C@@H](c2ccc(C(N)=O)c3[nH]c(-c4cnn(C)c4)cc23)C1 [E.9.49]
< 100 nM	C=CC(=O)N[C@@H]1CC[C@@H](c2ccc(C(N)=O)c3[nH]ccc23)C1 [E.9.50]
100 to 1000 nM	C=CC(=O)N1CCC[C@@H](c2cnc(C(N)=O)c3[nH]ccc23)C1 [E.9.51]
100 to 1000 nM	C=CC(=O)N1CCC[C@H](c2cnc(C(N)=O)c3[nH]ccc23)C1 [E.9.52]
100 to 1000 nM	CCC(=O)N1CC[C@H](c2ccc(C(N)=O)c3[nH]c(C)cc23)C1 [E.10.1]
100 to 1000 nM	CCC(=O)N1CC[C@@H](c2ccc(C(N)=O)c3[nH]c(C)cc23)C1 [E.10.2]
100 to 1000 nM	C=CC(=O)N1CCOC[C@@H](c2cnc(C(N)=O)c3[nH]ccc23)C1 [Example 3.1]
100 to 1000 nM	C=CC(=O)N1CCOC[C@H](c2cnc(C(N)=O)c3[nH]ccc23)C1 [Example 3.2]
< 100 nM	C=CC(=O)N1CCC[C@@H](c2ccc(C(N)=O)c3[nH]c(-c4cnn(C)c4)cc23)C1 [Example 4.1]
< 100 nM	C=CC(=O)N1CCC[C@H](c2ccc(C(N)=O)c3[nH]c(-c4cnn(C)c4)cc23)C1 [Example 4.2]
< 100 nM	C=CC(=O)N1CC(N(C)c2ccc(C(N)=O)c3[nH]c([C@@H]4CCOC4)cc23)C1 [Example 5.1]
< 100 nM	C=CC(=O)N1CC(N(C)c2ccc(C(N)=O)c3[nH]c([C@H]4CCOC4)cc23)C1 [Example 5.2]

same assay, conditions: trFRET, 0.001 mM ATP, biotin-TYR1 peptide substrate; read-out: Btk IC50

IC50	Compound
1000 to 10000 nM	Cc1oncc1C(=O)Nc1cccc(-c2ccc(C(N)=O)c3[nH]ccc23)c1 [E.2.1, N-(3-(7-carbamoyl-1H-indol-4-yl)phenyl)-5-methylisoxazole-4-carboxamide]
1000 to 10000 nM	CN1CCC=C(C(=O)Nc2cccc(-c3ccc(C(N)=O)c4[nH]ccc34)c2)C1 [E.2.2]
100 to 1000 nM	Cc1c(NC(=O)c2nccs2)cccc1-c1ccc(C(N)=O)c2[nH]c(-c3ccccc3CN)cc12 [Example 1, N-(3-(2-(2-(aminomethyl)phenyl)-7-carbamoyl-1H-indol-4-yl)-2-methylphenyl)thiazole-2-carboxamide]
1000 to 10000 nM	Cc1c(N)cccc1-c1cnc(C(N)=O)c2[nH]ccc12 [Example 2, 4-(3-Amino-2-methylphenyl)-1H-pyrrolo[2,3-c]pyridine-7-carboxamide]
100 to 1000 nM	Cc1c(NC(=O)c2nccs2)cccc1-c1ccc(C(N)=O)c2[nH]cc(C)c12 [Example 3, N-(3-(7-carbamoyl-3-methyl-1H-indol-4-yl)-2-methylphenyl)thiazole-2-carboxamide]
100 to 1000 nM	C=CC(=O)N1CCc2cc(C(N)=O)c3[nH]ccc3c21 [Example 4, 1-Acryloyl-1,2,3,6-tetrahydropyrrolo[2,3-e]indole-5-carboxamide]
1000 to 10000 nM	C=CC(=O)Nc1ccc(C(N)=O)c2[nH]ccc12 [Example 5, 4-Acrylamido-1H-indole-7-carboxamide]
